{"source": "ChEMBL document CHEMBL4330132", "about": "“5-Keto-3-cyano-2,4-diaminothiophenes as selective maternal embryonic leucine zipper kinase inhibitors” (Bioorg Med Chem Lett, 2019)", "key": {"[1]": {"target": "Non-receptor tyrosine-protein kinase TNK1 (Homo sapiens) (UniProt Q13470)", "assay": "Binding affinity to wild-type human full length TNK1 (M1 to P661 residues) expressed in bacterial expression system assessed as residual binding level at 1 uM by Kinomescan method relative to control"}, "[2]": {"target": "TGF-beta receptor type-2 (Homo sapiens) (UniProt P37173)", "assay": "Binding affinity to wild-type human partial length TGFBR2 (I218 to K567 residues) expressed in bacterial expression system assessed as residual binding level at 1 uM by Kinomescan method relative to control"}, "[3]": {"target": "Ephrin type-A receptor 8 (Homo sapiens) (UniProt P29322)", "sequence (P29322 whole entry, the tested form may be a part)": "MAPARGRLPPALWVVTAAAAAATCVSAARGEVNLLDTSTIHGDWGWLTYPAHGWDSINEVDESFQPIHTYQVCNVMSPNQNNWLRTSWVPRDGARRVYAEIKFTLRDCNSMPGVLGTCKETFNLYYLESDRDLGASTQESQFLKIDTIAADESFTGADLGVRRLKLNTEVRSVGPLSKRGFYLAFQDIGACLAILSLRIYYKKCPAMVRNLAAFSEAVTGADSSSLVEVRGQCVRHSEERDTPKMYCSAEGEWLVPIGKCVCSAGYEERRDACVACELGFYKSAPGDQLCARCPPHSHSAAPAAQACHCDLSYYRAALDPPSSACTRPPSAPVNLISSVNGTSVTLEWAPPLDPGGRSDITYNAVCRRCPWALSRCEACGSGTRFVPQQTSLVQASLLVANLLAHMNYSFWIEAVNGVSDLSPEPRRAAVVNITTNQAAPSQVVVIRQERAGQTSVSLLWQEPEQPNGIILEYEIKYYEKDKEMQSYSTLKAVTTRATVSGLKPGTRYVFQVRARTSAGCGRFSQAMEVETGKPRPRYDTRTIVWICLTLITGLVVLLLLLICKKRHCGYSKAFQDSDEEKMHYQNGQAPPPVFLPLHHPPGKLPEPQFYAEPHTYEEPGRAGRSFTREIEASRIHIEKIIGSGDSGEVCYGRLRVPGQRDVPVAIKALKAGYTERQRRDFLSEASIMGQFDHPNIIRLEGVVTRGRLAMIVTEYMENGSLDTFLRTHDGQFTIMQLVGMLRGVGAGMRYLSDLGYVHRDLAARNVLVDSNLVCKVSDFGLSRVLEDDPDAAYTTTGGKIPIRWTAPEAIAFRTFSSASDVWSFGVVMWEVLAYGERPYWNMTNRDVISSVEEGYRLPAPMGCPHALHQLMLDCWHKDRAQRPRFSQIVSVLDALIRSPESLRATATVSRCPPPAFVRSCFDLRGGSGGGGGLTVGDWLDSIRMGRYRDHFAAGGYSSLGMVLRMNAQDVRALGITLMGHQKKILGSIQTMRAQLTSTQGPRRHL", "assay": "Binding affinity to wild-type human partial length EPHA8 (Q608 to C920 residues) expressed in bacterial expression system assessed as residual binding level at 1 uM by Kinomescan method relative to control"}, "[4]": {"system": "Phosphatidylinositol 4,5-bisphosphate 3-kinase catalytic subunit alpha isoform (Homo sapiens), P42336 [M1043I]", "assay": "Binding affinity to human partial length PIK3CA M1043I mutant (R108 to N1068 residues) expressed in mammalian expression system assessed as residual binding level at 1 uM by Kinomescan method relative to control"}, "[5]": {"target": "Eukaryotic translation initiation factor 2-alpha kinase 1 (Homo sapiens) (UniProt Q9BQI3)", "sequence (Q9BQI3 whole entry, the tested form may be a part)": "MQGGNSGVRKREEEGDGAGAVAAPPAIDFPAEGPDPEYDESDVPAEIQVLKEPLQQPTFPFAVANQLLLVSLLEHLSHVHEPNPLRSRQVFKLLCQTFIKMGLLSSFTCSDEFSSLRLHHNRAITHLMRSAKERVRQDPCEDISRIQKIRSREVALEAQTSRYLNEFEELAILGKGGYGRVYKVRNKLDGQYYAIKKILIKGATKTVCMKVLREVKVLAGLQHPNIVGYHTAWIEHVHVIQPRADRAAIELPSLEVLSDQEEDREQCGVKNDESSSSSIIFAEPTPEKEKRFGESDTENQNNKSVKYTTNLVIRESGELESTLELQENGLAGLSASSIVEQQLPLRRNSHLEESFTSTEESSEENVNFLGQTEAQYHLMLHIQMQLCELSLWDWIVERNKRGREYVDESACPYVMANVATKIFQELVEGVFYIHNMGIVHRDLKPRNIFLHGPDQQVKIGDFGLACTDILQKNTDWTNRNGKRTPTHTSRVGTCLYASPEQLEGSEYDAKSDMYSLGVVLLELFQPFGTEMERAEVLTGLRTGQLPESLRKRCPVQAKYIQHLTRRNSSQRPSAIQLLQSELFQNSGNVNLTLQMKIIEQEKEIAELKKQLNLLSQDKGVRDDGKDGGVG", "assay": "Binding affinity to wild-type human partial length EIF2AK1 (Q147 to E603 residues) expressed in mammalian expression system assessed as residual binding level at 1 uM by Kinomescan method relative to control"}, "[6]": {"target": "Serine/threonine-protein kinase DCLK2 (Homo sapiens) (UniProt Q8N568)", "sequence (Q8N568 whole entry, the tested form may be a part)": "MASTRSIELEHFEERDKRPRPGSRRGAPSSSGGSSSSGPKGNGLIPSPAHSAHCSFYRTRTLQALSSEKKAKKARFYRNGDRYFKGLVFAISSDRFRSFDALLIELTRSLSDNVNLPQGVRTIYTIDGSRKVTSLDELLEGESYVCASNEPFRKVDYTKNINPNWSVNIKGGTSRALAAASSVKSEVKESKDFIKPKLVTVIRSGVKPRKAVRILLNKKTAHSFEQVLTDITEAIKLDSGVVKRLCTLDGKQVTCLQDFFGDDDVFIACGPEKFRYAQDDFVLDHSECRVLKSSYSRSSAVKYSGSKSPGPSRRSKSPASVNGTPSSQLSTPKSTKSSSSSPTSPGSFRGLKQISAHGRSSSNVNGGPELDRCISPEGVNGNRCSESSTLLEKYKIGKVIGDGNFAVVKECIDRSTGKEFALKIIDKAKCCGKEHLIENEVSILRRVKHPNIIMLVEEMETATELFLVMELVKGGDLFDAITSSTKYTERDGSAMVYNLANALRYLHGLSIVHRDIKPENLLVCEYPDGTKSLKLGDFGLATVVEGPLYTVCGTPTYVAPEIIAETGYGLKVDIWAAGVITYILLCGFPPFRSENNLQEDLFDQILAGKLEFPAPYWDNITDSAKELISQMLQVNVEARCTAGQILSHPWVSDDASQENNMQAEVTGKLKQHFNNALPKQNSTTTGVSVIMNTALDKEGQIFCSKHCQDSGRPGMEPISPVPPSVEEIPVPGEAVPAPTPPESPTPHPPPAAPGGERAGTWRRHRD", "assay": "Binding affinity to wild-type human partial length DCAMKL2 (K273 to V664 residues) expressed in bacterial expression system assessed as residual binding level at 1 uM by Kinomescan method relative to control"}, "[7]": {"target": "Myotonin-protein kinase (Homo sapiens) (UniProt Q09013)", "assay": "Binding affinity to wild-type human partial length DMPK (V47 to V415 residues) expressed in bacterial expression system assessed as residual binding level at 1 uM by Kinomescan method relative to control"}, "[8]": {"target": "Serine/threonine-protein kinase DCLK1 (Homo sapiens) (UniProt O15075)", "assay": "Binding affinity to wild-type human partial length DCAMKL1 (L270 to A662 residues) expressed in mammalian expression system assessed as residual binding level at 1 uM by Kinomescan method relative to control"}, "[9]": {"target": "Dual specificity protein kinase CLK3 (Homo sapiens) (UniProt P49761)", "sequence (P49761 whole entry, looked up, the tested form may be a part)": "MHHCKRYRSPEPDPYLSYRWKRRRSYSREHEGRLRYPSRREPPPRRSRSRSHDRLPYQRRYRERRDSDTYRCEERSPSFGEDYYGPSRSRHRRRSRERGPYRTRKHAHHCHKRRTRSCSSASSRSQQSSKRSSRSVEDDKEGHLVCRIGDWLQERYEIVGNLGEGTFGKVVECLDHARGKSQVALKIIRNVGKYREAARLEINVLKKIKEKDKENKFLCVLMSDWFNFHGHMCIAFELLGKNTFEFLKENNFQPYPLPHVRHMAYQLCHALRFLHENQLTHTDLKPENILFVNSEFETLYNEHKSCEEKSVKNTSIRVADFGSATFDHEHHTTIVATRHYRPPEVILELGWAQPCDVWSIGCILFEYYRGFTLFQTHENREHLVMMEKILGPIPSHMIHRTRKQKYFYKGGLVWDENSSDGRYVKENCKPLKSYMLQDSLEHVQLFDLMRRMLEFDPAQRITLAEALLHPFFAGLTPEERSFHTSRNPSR", "assay": "Binding affinity to wild-type human full length CLK3 (M1 to R490 residues) expressed in bacterial expression system assessed as residual binding level at 1 uM by Kinomescan method relative to control"}, "[10]": {"target": "Aurora kinase C (Homo sapiens) (UniProt Q9UQB9)", "assay": "Binding affinity to wild-type human full length AURKC (M1 to S275 residues) expressed in bacterial expression system assessed as residual binding level at 1 uM by Kinomescan method relative to control"}, "[11]": {"target": "Serine/threonine-protein kinase 3 (Homo sapiens) (UniProt Q13188)", "sequence (Q13188 whole entry, the tested form may be a part)": "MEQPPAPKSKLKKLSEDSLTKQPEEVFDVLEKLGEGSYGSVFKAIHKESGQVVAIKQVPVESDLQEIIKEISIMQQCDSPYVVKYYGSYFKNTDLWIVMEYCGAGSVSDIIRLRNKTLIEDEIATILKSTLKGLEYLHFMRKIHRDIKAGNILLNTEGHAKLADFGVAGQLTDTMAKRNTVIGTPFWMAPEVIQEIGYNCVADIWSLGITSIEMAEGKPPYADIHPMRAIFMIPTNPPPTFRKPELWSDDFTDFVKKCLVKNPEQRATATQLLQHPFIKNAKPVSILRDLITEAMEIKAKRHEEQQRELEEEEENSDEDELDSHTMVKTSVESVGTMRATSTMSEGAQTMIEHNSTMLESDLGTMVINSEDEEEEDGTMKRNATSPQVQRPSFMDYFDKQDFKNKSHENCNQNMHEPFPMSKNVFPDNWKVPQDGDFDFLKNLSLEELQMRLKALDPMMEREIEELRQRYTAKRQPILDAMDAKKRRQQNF", "assay": "Binding affinity to wild-type human partial length MST2 (D17 to E318 residues) expressed in bacterial expression system assessed as residual binding level at 1 uM by Kinomescan method relative to control"}, "[12]": {"target": "TRAF2 and NCK-interacting protein kinase (Homo sapiens) (UniProt Q9UKE5)", "assay": "Binding affinity to wild-type human partial length TNIK (D4 to K311 residues) expressed in bacterial expression system assessed as residual binding level at 1 uM by Kinomescan method relative to control"}, "[13]": {"target": "Tyrosine-protein kinase ITK/TSK (Homo sapiens) (UniProt Q08881)", "assay": "Binding affinity to wild-type human partial length ITK (R335 to L620 residues) expressed in bacterial expression system assessed as residual binding level at 1 uM by Kinomescan method relative to control"}, "[14]": {"target": "Casein kinase I isoform delta (Homo sapiens) (UniProt P48730)", "assay": "Binding affinity to wild-type human full length CSNK1D (M1 to K409 residues) expressed in bacterial expression system assessed as residual binding level at 1 uM by Kinomescan method relative to control"}, "[15]": {"target": "Serine/threonine-protein kinase TAO1 (Homo sapiens) (UniProt Q7L7X3)", "assay": "Binding affinity to wild-type human partial length TAOK1 (M1 to A320 residues) expressed in mammalian expression system assessed as residual binding level at 1 uM by Kinomescan method relative to control"}, "[16]": {"target": "cGMP-dependent protein kinase 1 (Homo sapiens) (UniProt Q13976)", "sequence (Q13976 whole entry, the tested form may be a part)": "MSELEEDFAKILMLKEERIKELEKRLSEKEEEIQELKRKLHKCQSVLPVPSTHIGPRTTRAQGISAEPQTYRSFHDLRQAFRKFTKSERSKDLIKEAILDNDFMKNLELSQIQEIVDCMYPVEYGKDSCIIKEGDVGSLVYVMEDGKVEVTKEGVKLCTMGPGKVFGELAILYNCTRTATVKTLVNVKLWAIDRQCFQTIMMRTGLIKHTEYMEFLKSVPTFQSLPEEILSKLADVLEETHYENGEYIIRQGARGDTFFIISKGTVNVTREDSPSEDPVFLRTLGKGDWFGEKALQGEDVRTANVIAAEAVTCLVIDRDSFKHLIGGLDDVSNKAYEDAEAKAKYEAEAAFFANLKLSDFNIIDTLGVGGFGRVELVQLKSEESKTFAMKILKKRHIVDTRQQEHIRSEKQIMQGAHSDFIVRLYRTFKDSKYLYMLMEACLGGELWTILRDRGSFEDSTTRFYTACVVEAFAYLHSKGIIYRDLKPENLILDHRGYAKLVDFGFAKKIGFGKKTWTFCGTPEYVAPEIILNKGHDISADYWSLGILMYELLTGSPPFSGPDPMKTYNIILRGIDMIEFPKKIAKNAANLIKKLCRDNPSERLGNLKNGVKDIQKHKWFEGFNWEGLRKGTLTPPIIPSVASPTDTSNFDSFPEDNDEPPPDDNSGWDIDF", "assay": "Binding affinity to wild-type human partial length PRKG1 (L339 to F686 residues) expressed in bacterial expression system assessed as residual binding level at 1 uM by Kinomescan method relative to control"}, "[17]": {"target": "Serine/threonine-protein kinase RIO3 (Homo sapiens) (UniProt O14730)", "sequence (O14730 whole entry, the tested form may be a part)": "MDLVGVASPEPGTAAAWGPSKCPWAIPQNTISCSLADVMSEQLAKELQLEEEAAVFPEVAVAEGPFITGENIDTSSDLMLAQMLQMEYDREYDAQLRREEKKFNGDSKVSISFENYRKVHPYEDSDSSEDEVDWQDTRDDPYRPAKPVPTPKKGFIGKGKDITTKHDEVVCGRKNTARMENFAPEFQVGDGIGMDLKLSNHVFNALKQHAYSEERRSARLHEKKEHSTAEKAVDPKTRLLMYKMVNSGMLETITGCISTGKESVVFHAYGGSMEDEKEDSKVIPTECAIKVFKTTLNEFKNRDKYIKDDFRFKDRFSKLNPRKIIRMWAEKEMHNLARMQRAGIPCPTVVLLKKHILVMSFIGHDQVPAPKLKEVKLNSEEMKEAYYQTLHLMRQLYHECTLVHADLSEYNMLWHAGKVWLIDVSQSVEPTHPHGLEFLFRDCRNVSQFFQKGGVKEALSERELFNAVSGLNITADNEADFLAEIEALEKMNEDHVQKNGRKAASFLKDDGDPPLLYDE", "assay": "Binding affinity to wild-type human full length RIOK3 (M1 to E519 residues) expressed in bacterial expression system assessed as residual binding level at 1 uM by Kinomescan method relative to control"}, "[18]": {"target": "cAMP-dependent protein kinase catalytic subunit beta (Homo sapiens) (UniProt P22694)", "assay": "Binding affinity to wild-type human full length PKAC-beta (M1 to F351 residues) expressed in bacterial expression system assessed as residual binding level at 1 uM by Kinomescan method relative to control"}, "[19]": {"target": "Serine/threonine-protein kinase 17A (Homo sapiens) (UniProt Q9UEE5)", "assay": "Binding affinity to wild-type human partial length DRAK1 (R32 to E363 residues) expressed in bacterial expression system assessed as residual binding level at 1 uM by Kinomescan method relative to control"}, "[20]": {"target": "Serine/threonine-protein kinase ULK3 (Homo sapiens) (UniProt Q6PHR2)", "sequence (Q6PHR2 whole entry, the tested form may be a part)": "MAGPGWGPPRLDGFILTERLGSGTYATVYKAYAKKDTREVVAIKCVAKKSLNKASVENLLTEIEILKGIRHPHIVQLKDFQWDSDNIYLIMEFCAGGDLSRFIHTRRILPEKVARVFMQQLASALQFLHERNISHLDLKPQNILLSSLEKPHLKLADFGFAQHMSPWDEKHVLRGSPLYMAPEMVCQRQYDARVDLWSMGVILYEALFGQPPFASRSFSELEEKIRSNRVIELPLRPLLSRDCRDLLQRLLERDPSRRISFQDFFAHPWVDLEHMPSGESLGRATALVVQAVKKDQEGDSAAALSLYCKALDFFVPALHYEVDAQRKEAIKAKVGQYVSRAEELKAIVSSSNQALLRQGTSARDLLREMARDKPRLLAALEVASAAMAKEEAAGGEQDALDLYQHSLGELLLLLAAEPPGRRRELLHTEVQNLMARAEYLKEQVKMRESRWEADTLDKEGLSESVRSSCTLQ", "assay": "Binding affinity to wild-type human partial length ULK3 (M1 to Q290 residues) expressed in mammalian expression system assessed as residual binding level at 1 uM by Kinomescan method relative to control"}, "[21]": {"target": "Serine/threonine-protein kinase PAK 4 (Homo sapiens) (UniProt O96013)", "assay": "Binding affinity to wild-type human partial length PAK4 (Q144 to R438 residues) expressed in bacterial expression system assessed as residual binding level at 1 uM by Kinomescan method relative to control"}, "[22]": {"target": "Serine/threonine-protein kinase 25 (Homo sapiens) (UniProt O00506)", "assay": "Binding affinity to wild-type human partial length YSK1 (V14 to H295 residues) expressed in bacterial expression system assessed as residual binding level at 1 uM by Kinomescan method relative to control"}, "[23]": {"system": "Tyrosine-protein kinase ABL1 (Homo sapiens), P00519 [F317L]", "assay": "Binding affinity to human phosphorylated ABL1 F317L mutant (S229 to K512 residues) expressed in mammalian expression system assessed as residual binding level at 1 uM by Kinomescan method relative to control"}, "[24]": {"system": "Hepatocyte growth factor receptor (Homo sapiens), P08581 [M1250T]", "assay": "Binding affinity to human partial length MET M1250T mutant (D1010 to S1367 residues) expressed in bacterial expression system assessed as residual binding level at 1 uM by Kinomescan method relative to control"}}}
{"smiles": "CC(C)Nc1sc(C(=O)c2ccc(Cl)s2)c(N)c1C#N", "values": [{"measurement": "Activity", "setting": "[1]", "value": 70, "unit": "%"}, {"measurement": "Activity", "setting": "[2]", "value": 100, "unit": "%"}, {"measurement": "Activity", "setting": "[3]", "value": 86, "unit": "%"}, {"measurement": "Activity", "setting": "[4]", "value": 97, "unit": "%"}, {"measurement": "Activity", "setting": "[5]", "value": 100, "unit": "%"}, {"measurement": "Activity", "setting": "[6]", "value": 100, "unit": "%"}, {"measurement": "Activity", "setting": "[7]", "value": 100, "unit": "%"}, {"measurement": "Activity", "setting": "[8]", "value": 100, "unit": "%"}, {"measurement": "Activity", "setting": "[9]", "value": 74, "unit": "%"}, {"measurement": "Activity", "setting": "[10]", "value": 100, "unit": "%"}, {"measurement": "Activity", "setting": "[11]", "value": 82, "unit": "%"}, {"measurement": "Activity", "setting": "[12]", "value": 62, "unit": "%"}, {"measurement": "Activity", "setting": "[13]", "value": 93, "unit": "%"}, {"measurement": "Activity", "setting": "[14]", "value": 59, "unit": "%"}, {"measurement": "Activity", "setting": "[15]", "value": 100, "unit": "%"}, {"measurement": "Activity", "setting": "[16]", "value": 100, "unit": "%"}, {"measurement": "Activity", "setting": "[17]", "value": 38, "unit": "%"}, {"measurement": "Activity", "setting": "[18]", "value": 100, "unit": "%"}, {"measurement": "Activity", "setting": "[19]", "value": 61, "unit": "%"}, {"measurement": "Activity", "setting": "[20]", "value": 99, "unit": "%"}, {"measurement": "Activity", "setting": "[21]", "value": 88, "unit": "%"}, {"measurement": "Activity", "setting": "[22]", "value": 81, "unit": "%"}, {"measurement": "Activity", "setting": "[23]", "value": 100, "unit": "%"}, {"measurement": "Activity", "setting": "[24]", "value": 78, "unit": "%"}]}
